Assay results taken from patent publication US20090069370A1, “AZACYCLYLISOQUINOLINONE AND ISOINDOLINONE DERIVATIVES AS HISTAMINE-3 ANTAGONISTS” (Wyeth, priority 2007, published 2009).
Counter-ions that a name gives are not always drawn.

| SMILES | melting point |
| --- | --- |
| O=C1c2ccc(-c3ccccc3)cc2CCN1[C@@H]1CCN(C2CCC2)C1 (as salt: hydrochloride) [Example 50, 2-[(3R)-1-cyclobutylpyrrolidin-3-yl]-6-phenyl-3,4-dihydroisoquinolin-1(2H)-one] | > 255 °C |
| O=C(c1ccc(-c2ccc3c(c2)CCN([C@@H]2CCN(C4CCC4)C2)C3=O)cc1Cl)N1CCCC1 (as salt: hydrochloride) [Example 49, 6-[3-chloro-4-(pyrrolidin-1-ylcarbonyl)phenyl]-2-[(3R)-1-cyclobutylpyrrolidin-3-yl]-3,4-dihydroisoquinolin-1(2H)-one] | 198 to 200 °C |
| N#Cc1ccc(-c2ccc3c(c2)CN(C2CCN(C4CCC4)CC2)C3=O)cc1 (as salt: hydrochloride) [Example 28, 4-[2-(1-Cyclobutylpiperidin-4-yl)-1-oxo-2,3-dihydro-1H-isoindol-5-yl]benzonitrile] | 320 °C (dec.) |
| CCNC(=O)c1ccc(-c2ccc3c(c2)CCN([C@@H]2CCN(C4CCCC4)C2)C3=O)cc1 (as salt: hydrochloride) [Example 42, 4-{2-[(3R)-1-cyclopentylpyrrolidin-3-yl]-1-oxo-1,2,3,4-tetrahydroisoquinolin-6-yl}-N-ethylbenzamide] | > 200 °C |
| O=C(NC1CCC1)c1ccc(COc2ccc3c(c2)CCN(C2CCN(C4CCC4)CC2)C3=O)cc1 (as salt: hydrochloride) [Example 19, N-Cyclobutyl-4-({[2-(1-cyclobutylpiperidin-4-yl)-1-oxo-1,2,3,4-tetrahydroisoquinolin-6-yl]oxy}methyl)benzamide] | 286 to 288 °C |
| CNC(=O)c1ccc(-c2ccc3c(c2)CCN([C@@H]2CCN(C4CCCC4)C2)C3=O)cc1 (as salt: hydrochloride) [Example 41, 4-{2-[(3R)-1-cyclopentylpyrrolidin-3-yl]-1-oxo-1,2,3,4-tetrahydroisoquinolin-6-yl}-N-methylbenzamide] | > 240 °C |
| CCN1CCC(N2Cc3cc(-c4ccc(C#N)cc4)ccc3C2=O)CC1 (as salt: hydrochloride) [Example 24, 4-[2-(1-Ethylpiperidin-4-yl)-1-oxo-2,3-dihydro-1H-isoindol-5-yl]benzonitrile] | > 300 °C |

More lines, now with the values ahead:

| melting point | SMILES |
| --- | --- |
| 249 to 250 °C | CC(C)N1CC[C@@H](N2CCc3cc(-c4ccc(C(=O)N5CCCC5)cc4F)ccc3C2=O)C1 (as salt: hydrochloride) [Example 84, 6-[2-fluoro-4-(pyrrolidin-1-ylcarbonyl)phenyl]-2-[(3R)-1-isopropylpyrrolidin-3-yl]-3,4-dihydroisoquinolin-1(2H)-one] |
| 220 to 221 °C | CNC(=O)c1ccc(-c2ccc3c(c2)CCN([C@@H]2CCN(C4CCC4)C2)C3=O)c(F)c1 (as salt: hydrochloride) [Example 75, 4-{2-[(3R)-1-cyclobutylpyrrolidin-3-yl]-1-oxo-1,2,3,4-tetrahydroisoquinolin-6-yl}-3-fluoro-N-methylbenzamide] |
| 239 to 241 °C | C[C@@H]1CCCN1C(=O)c1ccc(-c2ccc3c(c2)CCN([C@@H]2CCN(C4CCC4)C2)C3=O)c(F)c1 (as salt: hydrochloride) [Example 76, 2-[(3R)-1-cyclobutylpyrrolidin-3-yl]-6-(2-fluoro-4-{[(2R)-2-methylpyrrolidin-1-yl]carbonyl}phenyl)-3,4-dihydroisoquinolin-1(2H)-one] |
| 207 to 208 °C | CNC(=O)c1ccc(-c2ccc3c(c2)CN([C@@H]2CCN(C4CCC4)C2)C3=O)cc1 (as salt: hydrochloride) [Example 91, (R)-4-(2-(1-cyclobutylpyrrolidin-3-yl)-1-oxoisoindolin-5-yl)-N-methylbenzamide hydrochloride] |
| > 230 °C | CN1CC[C@@H](N2CCc3cc(-c4ccc(C(=O)N5CCCC5)cc4)ccc3C2=O)C1 (as salt: hydrochloride) [Example 55, 2-[(3R)-1-methylpyrrolidin-3-yl]-6-[4-(pyrrolidin-1-ylcarbonyl)phenyl]-3,4-dihydroisoquinolin-1(2H)-one] |
| 265 to 266 °C | CNC(=O)c1ccc(-c2ccc3c(c2)CCN([C@H]2CCN(C4CCC4)C2)C3=O)cc1.Cl [Example 90, (R)-4-(2-(1-cyclobutylpyrrolidin-3-yl)-1-oxo-1,2,3,4-tetrahydro-isoquinolin-6-yl)-N-methylbenzamide hydrochloride] |
| 220 to 222 °C | CC(C)N1CC[C@@H](N2CCc3cc(-c4ccc(C(=O)N5CCCC5)cc4)ccc3C2=O)C1 (as salt: hydrochloride) [Example 56, 2-[(3R)-1-(1-methylethyl)pyrrolidin-3-yl]-6-[4-(pyrrolidin-1-ylcarbonyl)phenyl]-3,4-dihydroisoquinolin-1(2H)-one] |
| 203 to 205 °C | O=C(c1cccc(-c2ccc3c(c2)CCN([C@@H]2CCN(C4CCC4)C2)C3=O)c1)N1CCCC1 (as salt: hydrochloride) [Example 52, 2-[(3R)-1-cyclobutylpyrrolidin-3-yl]-6-[3-(pyrrolidin-1-ylcarbonyl)phenyl]-3,4-dihydroisoquinolin-1(2H)-one] |
| 212 to 213 °C | C[C@H]1CCCN1C(=O)c1ccc(-c2ccc3c(c2)CCN([C@@H]2CCN(C4CCC4)C2)C3=O)c(F)c1 (as salt: hydrochloride) [Example 73, 2-[(3R)-1-cyclobutylpyrrolidin-3-yl]-6-(2-fluoro-4-{[(2S)-2-methylpyrrolidin-1-yl]carbonyl}phenyl)-3,4-dihydroisoquinolin-1(2H)-one] |
